Values of other authors in US20240139350A1, “RADIOACTIVELY LABELED LIGAND FOR FIBROBLAST ACTIVATION PROTEIN-ALPHA IMAGING AGENT AND PREPARATION METHOD THEREFOR” (FIVE ELEVEN PHARMA, INC, priority 2021, published 2024).

Legend:
[1] = coordination to Ga^3+
FAP-positive tumor = conditions: after 24 hours, relative to FAPI-02
murine FAP = biological target: T1, murine FAP (Mus musculus, UniProt P97321); conditions: human embryonic kidney cells expressing mouse FAP
T1 construct: expressed in transfected cells; host or cells: human embryonic kidney cells
T1 sequence (P97321 1-761): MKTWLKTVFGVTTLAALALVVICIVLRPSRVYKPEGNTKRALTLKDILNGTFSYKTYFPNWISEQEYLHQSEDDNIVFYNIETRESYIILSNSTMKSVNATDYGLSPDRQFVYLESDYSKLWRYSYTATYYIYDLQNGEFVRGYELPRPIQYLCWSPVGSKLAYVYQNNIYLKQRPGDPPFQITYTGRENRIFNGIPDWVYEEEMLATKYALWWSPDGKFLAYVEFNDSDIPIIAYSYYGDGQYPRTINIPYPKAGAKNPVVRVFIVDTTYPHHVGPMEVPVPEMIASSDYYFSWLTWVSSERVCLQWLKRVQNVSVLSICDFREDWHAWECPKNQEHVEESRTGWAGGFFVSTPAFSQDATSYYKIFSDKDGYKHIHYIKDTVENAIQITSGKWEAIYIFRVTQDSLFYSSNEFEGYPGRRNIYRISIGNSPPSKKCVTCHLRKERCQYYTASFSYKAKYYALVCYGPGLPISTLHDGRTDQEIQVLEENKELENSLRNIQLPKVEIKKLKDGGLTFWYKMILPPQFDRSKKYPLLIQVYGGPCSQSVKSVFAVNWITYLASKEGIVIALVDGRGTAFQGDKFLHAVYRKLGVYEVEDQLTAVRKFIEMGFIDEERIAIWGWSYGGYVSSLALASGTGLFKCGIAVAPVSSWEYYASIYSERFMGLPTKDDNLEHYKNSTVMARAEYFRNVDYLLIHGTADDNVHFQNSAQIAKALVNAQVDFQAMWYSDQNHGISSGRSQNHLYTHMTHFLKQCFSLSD

[2] = biological target: T2, dipeptidyl peptidase 4 (CD26) (Homo sapiens, UniProt P27487); conditions: human embryonic kidney cells transfected with CD26
T2 construct: expressed in transfected cells; host or cells: human embryonic kidney cells
T2 sequence (P27487 whole entry, species assumed): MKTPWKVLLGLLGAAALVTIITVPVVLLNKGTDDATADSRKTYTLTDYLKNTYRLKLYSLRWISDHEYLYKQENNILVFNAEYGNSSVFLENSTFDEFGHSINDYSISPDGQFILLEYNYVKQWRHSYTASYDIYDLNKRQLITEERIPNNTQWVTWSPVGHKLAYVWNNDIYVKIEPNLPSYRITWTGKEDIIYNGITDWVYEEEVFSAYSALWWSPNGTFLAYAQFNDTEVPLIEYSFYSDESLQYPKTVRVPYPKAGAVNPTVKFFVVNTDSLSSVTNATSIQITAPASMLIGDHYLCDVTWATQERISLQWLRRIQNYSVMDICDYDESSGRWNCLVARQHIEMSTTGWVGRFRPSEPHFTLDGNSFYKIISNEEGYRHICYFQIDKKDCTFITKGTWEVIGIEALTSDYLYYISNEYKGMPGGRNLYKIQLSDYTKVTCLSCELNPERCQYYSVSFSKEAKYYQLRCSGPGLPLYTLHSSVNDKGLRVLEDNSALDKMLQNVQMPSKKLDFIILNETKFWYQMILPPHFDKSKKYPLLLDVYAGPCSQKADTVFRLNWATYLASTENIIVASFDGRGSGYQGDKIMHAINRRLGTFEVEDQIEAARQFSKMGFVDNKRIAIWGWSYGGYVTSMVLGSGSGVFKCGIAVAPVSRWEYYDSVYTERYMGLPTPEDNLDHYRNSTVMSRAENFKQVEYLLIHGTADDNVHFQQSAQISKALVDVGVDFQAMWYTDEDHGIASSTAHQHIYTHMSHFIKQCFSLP

| Structure (SMILES) | thermodynamically stable constant log KML [1] | binding to murine FAP (murine FAP) | further results |
| --- | --- | --- | --- |
| O=C(O)CN1CCN(CC(=O)O)CCN(CC(=O)O)CC1 [NOTA] | 31.0 |  |  |
| CC1(N(CC(=O)O)CC(=O)O)CN(CC(=O)O)CCN(CC(=O)O)C1 [AAZTA] | 22.18 |  |  |
| N#C[C@@H]1CC(F)(F)CN1C(=O)CNC(=O)c1ccnc2ccc(OCCCN3CCN(C(=O)CN4CCN(CC(=O)O)CCN(CC(=O)O)CCN(CC(=O)O)CC4)CC3)cc12 (177Lu complex, metal not drawn) [FAPI-04] |  |  | effective tumor uptake higher than FAPI-02 (FAP-positive tumor): 100% |
| N#C[C@@H]1CCCN1C(=O)CNC(=O)c1ccnc2ccc(OCCCN3CCN(C(=O)CN4CCN(CC(=O)O)CCN(CC(=O)O)CCN(CC(=O)O)CC4)CC3)cc12 [FAPI-02] |  | strong binding |  |
| O=C(O)CN1CCN(CC(=O)O)CCN(CC(=O)O)CCN(CC(=O)O)CC1 [DOTA] | 21.3 |  |  |
| N#C[C@@H]1CC(F)(F)CN1C(=O)CNC(=O)c1ccnc2ccc(OCCCN3CCN(C(=O)CN4CCN(CC(=O)O)CCN(CC(=O)O)CCN(CC(=O)O)CC4)CC3)cc12 [FAPI-04] |  | strong binding | binding to CD26 [2]: did not bind |
